Test results taken from patent US20090011410A1, “METHOD FOR TAILORING ADMINISTRATION OF DRUGS BY QUANTITATION OF MRNA” (priority 2004, published 2009).

Experiments:
IL-2 mRNA = assay: PHA-P-induced leukocyte IL-2 mRNA expression in heparinized whole blood of healthy adults; assay type: cell-based, human
Source text: Blood was obtained from healthy adults and from patients with psoriasis (4), aplastic anemia (1), nephrotic syndrome (1), and bone marrow transplantation (2). At the time of blood draw, one EDTA tube was sent to clinical laboratory for the measurement of leukocyte counts, and one heparin tube was stored on ice. […] Fifty μL each of blood sample was applied to three different wells of filterplates (triplicate from the beginning), and leukocytes were collected on the membrane by centrifugation at 800×g for 2 min. After washing each well with 300 μL phosphate buffered saline (PBS) once by centrifugation, the lysis buffer described above was applied to each well and incubated at 37° C. for 10 min to release mRNA from trapped leukocytes. The lysate was then transferred to oligo-(dT)-immobilized microplates (GenePlate, RNAture, Irvine, Calif.) by centrifugation at 2000× g for 5 min, and incubated at 4° C. overnight for hybridization. After washing each well with 100 μL lysis buffer 3 times followed by 150 μL wash buffer (10 mM Tris, pH 7.4, 1 mM EDTA, pH 8.0, and 0.5 M NaCl) 3 times, cDNA was synthesized in each well by adding buffer, nucleotides, a cocktail of specific primers, RNasin, and MMLV reverse transcriptase (Promega, Madison, Wis.), and incubated at 37° C. for 2 hours. […]

lymphocyte blastogenesis = settings: induction of lymphocyte blastogenesis, activity declined at higher doses; cited from earlier work

Substance: phytohemagglutinin-P [PHA-P]
- PHA-P concentration from which IL-2 mRNA increased (IL-2 mRNA; heparinized whole blood (FIG. 18)): ≥ 5 µg/mL
- PHA-P concentration over which IL-2 mRNA reached a plateau (IL-2 mRNA; heparinized whole blood (FIG. 18, 19)): over 40 μg/mL
- PHA-P concentration of maximal action (lymphocyte blastogenesis): 10 to 20 µg/mL
